# Measured values reported in US10765751B2, “pH sensitive carrier and preparation method thereof, and pH sensitive drug and pH sensitive drug composition each containing the carrier, and method for treating or preventing diseases using the same” (TERUMO KABUSHIKI KAISHA, priority 2012, dated 2020).
# How the values were obtained:
# [1] = Leaching test: measurement of a leakage (leaching rate); type: biochemical; conditions: hydrophobic material alone, 37° C., 90 min, mean of three ± SD
# Experimental: The leakage (leaching rate) was determined according to the method described by K. Kono et al., Bioconjugate Chem., 2008 19 1040-1048 and evaluated using an EYPC liposome including Pyranine serving as a fluorescent substance and DPX serving as a quencher.
# 3000 nmol of EYPC dissolved in chloroform was measured and placed in a 10 mL eggplant flask and converted to a thin film by use of a rotary evaporator (BuCHI). 500 μL of a Pyranine solution (Pyranine: 35 mM, DPX: 50 mM, MES: 25 mM, pH 7.4) was added, followed by dispersion with use of an ultrasonic irradiator (USC-J) and passage through a polycarbonate film having a pore size of 100 nm by use of an extruder to obtain a uniform particle size. Using an MES buffer (MES: 25 mM, NaCl: 125 mM, pH 7.4) and a G100 column, an outer water layer was substituted to obtain a dispersion of EYPC liposomes including the fluorescent substance. The concentration of the choline group of the phospholipid was determined by use of the phospholipid C test Wako and was adjusted by use of an MES buffer (MES: 25 mM, NaCl: 125 mM, pH 7.4) in such a way as to obtain 1.0 mmol/L of the phospholipid. […] The DOPE-Chems and DOPE-oleic acid were, respectively, measured in an acetic acid buffer (acetic acid: 25 mM, NaCl: 125 mM).
# With respect to other samples, measurement at a pH of 4.0 to 3.0 was carried out by use of an acetic acid buffer.
# It will be noted that the leakage was calculated in such a way that in case where the EYPC liposome dispersion alone was used, it was taken as 0% and a value obtained in case where 30 μL of a 10-fold diluted Triton-X100 was added was taken as 100%.
# More particularly, the leakage was calculated according to the following equation. In the following equation, a measured fluorescence intensity is represented by L, a fluorescence intensity of a dispersion alone of EYPC liposomes including a fluorescent substance is represented by L0, and a fluorescence intensity in case where Triton-X100 was added is represented by L100. Leakage (%)=(L−L0)/(L100−L0)×100 Fusion Test: Measurement of Fusion (Membrane Fusion)
# RAW cells [2] = assay: Evaluation of cytosolic delivery using a fluorescence-labeled peptide; type: cell-based; conditions: 14 μg of the fluorescence-labeled peptide/well, overnight, three hours post-incubation; FIG. 19, 20
# Experimental: OVA-257-264-Rh was chosen as a model peptide. 140 μg/ml of a fluorescence-labeled peptide solution was prepared by use of PBS passed through a 0.22 μm filter and used for the preparation of a carrier. Cells used were RAW cells, and culture was carried out by use of an incubator (MCO20AIC) set at 5% CO2 and 37° C. The RAW cells were spread on a matsunami glass bottom dish on the day before the charge of the carrier and cultured in a 10% FBS-containing MEM medium.
# After rinsing the cells with PBS, the medium was substituted with 1900 μL of a fresh 10% FBS-containing MEM medium, into which 100 μL of the respective samples was charged. Incubation was continued over 16 to 20 hours and the cells were rinsed at least three times with PBS. Thereafter, 2 mL of a fresh 10% FBS-containing MEM medium was added, following by three hours post-incubation. The cells were rinsed with PBS, followed by substitution with a DMEM-without-Phenol-Red medium and observation of the cells through a fluorescence microscope Axiovert 200M—soft: Axio vision 3.0—light source: Fluo Arc
# RAW cells [3] = assay: Cytosolic delivery of β-gal; type: cell-based; conditions: 16 to 20 hours incubation, three hours post-incubation; FIG. 21
# Experimental: Using PBS passed through a 0.22 μm filter, there was prepared a 1.4 mg/mL of β-gal solution. […] On the day before charge, the RAW cells were spread on a matsunami glass bottom dish and cultured, and the cells were rinsed with PBS immediately before charge. The culture was carried out by use of an incubator (MCO 20 AIC) set at 5% CO2 and 37° C. and a 10% FBS-containing MEM medium. After substitution with 1900 μL of a fresh 10% FBS-containing MEM medium, 100 μL of the respective samples was charged, followed by 16 to 20 hours incubation. The cells were rinsed at least three times with PBS. Thereafter, 2 mL of a fresh 10% FBS-containing MEM medium was added, following by three hours post-incubation. The cells were rinsed with PBS, followed by staining the cells with use of a β-Galactosidase Staining Kit (purchased from Takara Bio Inc.), and observing the cells through a microscope (Axiovert 200M—soft: Axio vision 3.0). The staining was carried out in accordance with the recommendation of the kit.
Compound,Hydrophobic material only Leakage (%) ([1]; pH 5.0),Hydrophobic material only Leakage (%) ([1]; pH 7.4),localisation of fluorescence-labeled peptide in cells (cytosolic delivery) (RAW cells [2]),staining of cells by β-gal enzymatic activity (cytosolic delivery) (RAW cells [3])
"CC(=O)Oc1c(C)c(C)c2c(c1C)CCC(C)(CCC[C@H](C)CCC[C@H](C)CCCC(C)C)O2 (mixture of isomers) [α-Tocopherol acetate, DL-α-tocopherol acetate]",7.0 ± 2.1,5.9 ± 0.2,–,–
"Cc1c(C)c2c(c(C)c1O)CCC(C)(CCCC(C)CCCC(C)CCCC(C)C)O2 (racemic) [α-Tocopherol, DL-α-tocopherol]",8.8 ± 0.6,5.4 ± 0.2,–,–
CCCCO [1-Butanol],11.1 ± 0.5,8.8 ± 0.1,–,–
CCCCCCCCCCCCO [1-Dodecanol],9.1 ± 0.8,7.9 ± 0.2,–,–
CCCCCCCCCCCCCCCCCCCCO [1-Eicosanol],8.6 ± 0.5,7.6 ± 0.4,–,–
"CCCCCCCCCCCCCCCCO [1-Hexadodecanol, 1-Hexadecanol]",11.0 ± 0.5,9.0 ± 0.9,–,–
CCCCCCCCO [1-Octanol],11.7 ± 0.1,9.0 ± 0.3,–,–
CCCCCCCCCCCCCCCC(=O)OC[C@H](O)[C@H]1OC(=O)C(O)=C1O [Ascorbyl palmitate],9.9 ± 1.0,1.7 ± 0.1,–,–
O=C(OCc1ccccc1)c1ccccc1 [Benzyl benzoate],9.7 ± 0.5,7.3 ± 2.0,–,–
"CC(C)CCC[C@@H](C)[C@H]1CC[C@H]2[C@@H]3CC=C4C[C@@H](O)CC[C@]4(C)[C@H]3CC[C@]12C [Cholesterol, cholesterol]",7.6 ± 0.5,4.8 ± 0.1,–,–
CCCCCCCCCCCC(=O)OCC [Ethyl laurate],11.9 ± 1.2,8.7 ± 0.9,–,–
CCCCCCCC/C=C\CCCCCCCC(=O)OCC [Ethyl oleate],11.2 ± 1.3,7.9 ± 0.2,–,–
CCCCCCCC/C=C\CCCCCCCC(=O)OCC(CO)OC(=O)CCCCCCC/C=C\CCCCCCCC (stereo not drawn) [Glycerol dioleate],7.4 ± 0.6,7.2 ± 0.5,–,–
CCCCCCCCCCCCCCCCCC(=O)OCC(CO)OC(=O)CCCCCCCCCCCCCCCCC (stereo not drawn) [Glycerol distearate],11.0 ± 1.4,8.0 ± 0.2,–,–
"N[C@@H](Cc1c[nH]cn1)C(=O)O [L-Histidine, L-histidine]",8.9 ± 0.5,6.7 ± 0.4,–,–
N[C@@H](Cc1ccccc1)C(=O)O [L-Phenylalanine],10.7 ± 0.4,7.9 ± 0.5,–,–
OC[C@H]1O[C@@H](O[C@H]2[C@H](O)[C@@H](O)C(O)O[C@@H]2CO)[C@H](O)[C@@H](O)[C@H]1O (stereo partly drawn) [Lactose],8.9 ± 0.2,6.1 ± 0.2,–,–
CCCCCCCCCCCC(=O)O [Lauric acid],14.2 ± 0.4,6.2 ± 0.4,–,–
"CCCCCCCCCC(=O)OCC(O)CO (stereo not drawn) [Monocaprin, Glycerol monocaprate]",8.1 ± 0.2,4.0 ± 2.6,–,–
"CCCCCCCC(=O)OCC(O)CO (stereo not drawn) [Monocaprylin, Glycerol monocaprylate]",8.5 ± 0.4,4.9 ± 1.8,–,–

Compound,Hydrophobic material only Leakage (%) ([1]; pH 5.0),Hydrophobic material only Leakage (%) ([1]; pH 7.4),localisation of fluorescence-labeled peptide in cells (cytosolic delivery) (RAW cells [2]),staining of cells by β-gal enzymatic activity (cytosolic delivery) (RAW cells [3])
"CCCCCCCCCCCC(=O)OCC(O)CO (stereo not drawn) [Monolaurin, Glycerol monolaurate]",5.6 ± 0.4,3.6 ± 0.3,–,–
"CCCCCCCCCCCCCC(=O)OCC(O)CO (stereo not drawn) [Monomyristin, Glycerol monomyristate]",5.4 ± 0.1,3.8 ± 0.3,–,–
"CCCCCCCC/C=C\CCCCCCCC(=O)OCC(O)CO (stereo not drawn) [Monoolein, Glycerol monooleate]",8.3 ± 0.4,6.3 ± 0.4,–,–
"CCCCCCCCCCCCCCCC(=O)OCC(O)CO (stereo not drawn) [Monopalmitin, Glycerol monopalmitate]",8.1 ± 0.7,7.8 ± 2.5,–,–
"CCCCCCCCCCCCCCCCCC(=O)OCC(O)CO (stereo not drawn) [Monostearin, Glycerol monostearate]",9.6 ± 0.6,7.9 ± 1.0,–,–
"CCCCCCCC/C=C\CCCCCCCC(=O)[O-].[Na+] [Oleic acid, Sodium oleate]",76.0 ± 2.3,2.2 ± 0.1,–,–
"CCCOC(=O)c1ccc(O)cc1 [Propyl paraoxybenzoate, propyl paraoxybenzoate]",7.9 ± 0.1,5.4 ± 0.2,–,–
"CC(C)CCCC(C)CCCC(C)CCCCC(C)CCCC(C)CCCC(C)C (stereo not drawn) [Squalane, squalane]",9.4 ± 0.5,7.8 ± 0.6,–,–
CC(C)=CCC/C(C)=C/CC/C(C)=C/CC/C=C(\C)CC/C=C(\C)CCC=C(C)C [Squalene],9.0 ± 0.5,5.4 ± 0.4,–,–
"CCCCCC(=O)OCC(COC(=O)CCCCC)OC(=O)CCCCC [Tricaproin, tricaproin]",8.4 ± 0.9,6.9 ± 0.9,–,–
"CCCCCCCC(=O)OCC(COC(=O)CCCCCCC)OC(=O)CCCCCCC [Tricaprylin, tricaprylin]",9.0 ± 1.1,6.8 ± 0.9,–,–
Cyclodextrin,9.0 ± 0.7,6.3 ± 0.6,–,–
fluorescence-labeled peptide alone: Fluorescence-labeled peptide: OVA257-264-Rh,–,–,remained in the endosome,–
sorbitan monolaurate [SPAN 20],10.1 ± 0.4,5.7 ± 0.7,–,–
sorbitan monooleate [SPAN 80],10.0 ± 0.7,5.1 ± 0.5,–,–
sorbitan palmitic acid ester [SPAN 40],20.8 ± 1.4,14.9 ± 0.8,–,–
sorbitan stearic acid ester [SPAN 60],17.5 ± 0.4,7.9 ± 0.3,–,–
sorbitan trioleic acid ester [SPAN 85],17.7 ± 1.2,5.2 ± 0.4,–,–
sorbitan tristearate [SPAN 65],13.0 ± 0.3,4.2 ± 0.4,–,–
β-D-galactosidase [β-gal alone],–,–,–,not stained
